Test results from US7649089B2, “Biodegradable oxidized cellulose esters and their uses as microspheres” (University of Iowa Research Foundation, priority 2001, dated 2010).
Converted amounts (≈) assume the structure as drawn.

Assays:
[1] = Release studies of CPT microspheres in pH 7.4 PBS at 37 C, sink condition; type: physicochemical; conditions: free drug
Procedure: OCA was prepared from oxidized (OC, COOH content 14% w/w) by treatment with a mixture of Ac2O/HOAC/H2SO4. The preparation of OCAM was achieved from a reaction between OCA and methanol using dicyclohexylcarbodiimide and 4,4′-dimethylaminopyridine as the catalysts. OCA and OCAM microspheres containing CPT were prepared by the emulsion/solvent evaporation method using the CH2Cl2—CH3OH mixture as a solvent and polyvinyl alcohol as an emulsifier. Microspheres were characterized by IR, scanning electron and confocal microscopes, and powder X-ray diffractometry. Dissolution studies were performed in pH 7.4 phosphate buffer-saline (PBS) at 37° C.
The release studies were performed under the sink condition in pH 7.4 PBS buffer at 37.0±0.2° C. At predetermined time intervals, 5.0 ml of the release medium was withdrawn. This was immediately replaced with an equal volume of the fresh PBS solution. The removed release medium was appropriated diluted with the mobile phase and analyzed by HPLC.

[2] = Solubility of 5-fluorouracil in pH 7.4 phosphate buffer saline; type: physicochemical; conditions: aqueous buffer, pH 7.4 PBS, read-out: solubility in pH 7.4 phosphate buffer saline solution

CC[C@@]1(O)C(=O)OCc2c1cc1n(c2=O)Cc2cc3ccccc3nc2-1 [free CPT, camptothecin]
time to dissolve [1]: about 48 hours

O=c1[nH]cc(F)c(=O)[nH]1 [5-fluorouracil]
solubility [2]: 14.9 mg/mL (≈ 114 mM)
